Test results: patent publication US4051237A, “Glycopeptide antibiotics Bu-2231 A and B and process for producing same” (priority 1975, dated 1977)
Converted amounts (≈) assume the structure as drawn.

What was measured:
Format in all cases: cell-based
C. albicans Nystatin-R = assay: MIC by two-fold agar dilution; conditions: Ca-2 C. albicans Nystatin-R; sabouraud agar; unit assumed
S. cerevisiae IAM 4009 = assay: MIC by two-fold agar dilution; conditions: Sc-2 S. cerevisiae IAM 4009; sabouraud agar; unit assumed
Sporotrichum sp. = assay: MIC by two-fold agar dilution; conditions: Sy-1 Sporotrichum sp.; sabouraud agar; unit assumed
M. flavus D12 = assay: MIC by two-fold agar dilution; conditions: Mueller-Hinton agar, unit assumed
C. lunata ATCC 13432 = assay: MIC by two-fold agar dilution; conditions: Cl-1 C. lunata ATCC 13432; sabouraud agar; unit assumed
P. aeruginosa A 9923 = assay: MIC by two-fold agar dilution; conditions: Mueller-Hinton agar, unit assumed
[1] = system: C. tropicalis #125 A15051; assay: MIC by two-fold agar dilution; conditions: Ct-4 C. tropicalis #125 A15051; sabouraud agar; unit assumed
S. cerevisiae ATCC 9763 = assay: MIC by two-fold agar dilution; conditions: Sc-1 S. cerevisiae ATCC 9763; sabouraud agar; unit assumed
[2] = system: Mycobacterium ranae, ATCC110; assay: MIC by two-fold agar dilution; conditions: Medium #1001, unit assumed
B. cereus ATCC 10702A = assay: MIC by two-fold agar dilution; conditions: Mueller-Hinton agar, unit assumed
K. pneumoniae A20680 = assay: MIC by two-fold agar dilution; conditions: Mueller-Hinton agar, unit assumed
P morganii A9553 = assay: MIC by two-fold agar dilution; conditions: Mueller-Hinton agar, unit assumed
Mucor sp. = assay: MIC by two-fold agar dilution; conditions: My-1 Mucor sp.; sabouraud agar; unit assumed
P. citrinum IAM 7008 = assay: MIC by two-fold agar dilution; conditions: Pt-1 P. citrinum IAM 7008; sabouraud agar; unit assumed
P. rettgeri A15167 = assay: MIC by two-fold agar dilution; conditions: Mueller-Hinton agar, unit assumed
S. marcescens A20019 = assay: MIC by two-fold agar dilution; conditions: Mueller-Hinton agar, unit assumed
P. aeruginosa H9, D113 = assay: MIC by two-fold agar dilution; conditions: Mueller-Hinton agar, unit assumed
S. aureus 209P = assay: MIC by two-fold agar dilution; conditions: Mueller-Hinton agar, unit assumed
C. tropicalis IAM 4157 = assay: MIC by two-fold agar dilution; conditions: Ct-1 C. tropicalis IAM 4157; sabouraud agar; unit assumed
S. marcescens A20460 = assay: MIC by two-fold agar dilution; conditions: Mueller-Hinton agar, unit assumed
K. pneumoniae A20328 = assay: MIC by two-fold agar dilution; conditions: Mueller-Hinton agar, unit assumed
P. aeruginosa A9930 = assay: MIC by two-fold agar dilution; conditions: Mueller-Hinton agar, unit assumed
A. niger var Tieghem = assay: MIC by two-fold agar dilution; conditions: An-1 A. niger var Tieghem; sabouraud agar; unit assumed
Hormodendrum sp. = assay: MIC by two-fold agar dilution; conditions: Hy-1 Hormodendrum sp.; sabouraud agar; unit assumed
C. neoformans (Cn-1) = assay: MIC by two-fold agar dilution; conditions: Cn-1 C. neoformans; sabouraud agar; unit assumed
S. aureus A20239 = assay: MIC by two-fold agar dilution; conditions: Mueller-Hinton agar, unit assumed
P. mirabilis A9554 = assay: MIC by two-fold agar dilution; conditions: Mueller-Hinton agar, unit assumed
B. subtilis PCI-219 = assay: MIC by two-fold agar dilution; conditions: Mueller-Hinton agar, unit assumed
M. canis D-51 = assay: MIC by two-fold agar dilution; conditions: Mc-1 M. canis D-51; sabouraud agar; unit assumed
[3] = system: C. albicans #520 Yale A9540; assay: MIC by two-fold agar dilution; conditions: Ca-4 C. albicans #520 Yale A9540; sabouraud agar; unit assumed
Mycobacterium 607, D47 = assay: MIC by two-fold agar dilution; conditions: Medium #1001, unit assumed
K. pneumoniae A9678 = assay: MIC by two-fold agar dilution; conditions: Mueller-Hinton agar, unit assumed
K. pneumoniae D11 = assay: MIC by two-fold agar dilution; conditions: Mueller-Hinton agar, unit assumed
P. stuartii A20734 = assay: MIC by two-fold agar dilution; conditions: Mueller-Hinton agar, unit assumed
E. coli A20732 = assay: MIC by two-fold agar dilution; conditions: Mueller-Hinton agar, unit assumed
C. neoformans IAM 4514 = assay: MIC by two-fold agar dilution; conditions: Cn-2 C. neoformans IAM 4514; sabouraud agar; unit assumed
B. mycoides "0" = conditions: Mueller-Hinton agar, unit assumed
P. vulgaris A9436 = assay: MIC by two-fold agar dilution; conditions: Mueller-Hinton agar, unit assumed
S. aureus #193 = assay: MIC by two-fold agar dilution; conditions: Mueller-Hinton agar, unit assumed
B. anthracis 115 = conditions: Mueller-Hinton agar, unit assumed
S. aureus Smith A9537 = assay: MIC by two-fold agar dilution; conditions: Mueller-Hinton agar, unit assumed
A. fumigatus IAM 2530 = assay: MIC by two-fold agar dilution; conditions: Af-1 A. fumigatus IAM 2530; sabouraud agar; unit assumed
Verticillium sp. = assay: MIC by two-fold agar dilution; conditions: Vx-1 Verticillium sp.; sabouraud agar; unit assumed
S. marcescens A20333 = assay: MIC by two-fold agar dilution; conditions: Mueller-Hinton agar, unit assumed
E. cloacae A21006 = assay: MIC by two-fold agar dilution; conditions: Mueller-Hinton agar, unit assumed
T. rubrum D-55 = assay: MIC by two-fold agar dilution; conditions: Tr-1 T. rubrum D-55; sabouraud agar; unit assumed

Phleomycin [reference compound]
MIC (C. albicans Nystatin-R): 1.6 µg/mL
MIC (S. cerevisiae IAM 4009): 0.8 µg/mL
MIC (Sporotrichum sp.): 12.5 µg/mL
MIC (M. flavus D12): 0.2 µg/mL
MIC (C. lunata ATCC 13432): 0.4 µg/mL
MIC (P. aeruginosa A 9923): > 100 µg/mL
MIC [1]: 6.3 µg/mL
MIC (S. cerevisiae ATCC 9763): 0.8 µg/mL
MIC [2]: 0.4 µg/mL
MIC (B. cereus ATCC 10702A): 0.2 µg/mL
MIC (K. pneumoniae A20680): > 100 µg/mL
MIC (P morganii A9553): 6.3 µg/mL
MIC (Mucor sp.): 3.1 µg/mL
MIC (P. citrinum IAM 7008): 3.1 µg/mL
MIC (P. rettgeri A15167): 3.1 µg/mL
MIC (S. marcescens A20019): 0.8 µg/mL
MIC (P. aeruginosa H9, D113): > 100 µg/mL
MIC (S. aureus 209P): 0.2 µg/mL
MIC (C. tropicalis IAM 4157): 3.1 µg/mL
MIC (S. marcescens A20460): 0.8 µg/mL
MIC (K. pneumoniae A20328): > 100 µg/mL
MIC (P. aeruginosa A9930): 3.1 µg/mL
MIC (A. niger var Tieghem): 0.4 µg/mL
MIC (Hormodendrum sp.): 0.8 µg/mL
MIC (C. neoformans (Cn-1)): 0.4 µg/mL
MIC (S. aureus A20239): 0.4 µg/mL
MIC (P. mirabilis A9554): 1.6 µg/mL
MIC (B. subtilis PCI-219): < 0.0063 µg/mL
MIC (M. canis D-51): 6.3 µg/mL
MIC [3]: 6.3 µg/mL
MIC (Mycobacterium 607, D47): 0.2 µg/mL
MIC (K. pneumoniae A9678): 12.5 µg/mL
MIC (K. pneumoniae D11): 0.4 µg/mL
MIC (P. stuartii A20734): 1.6 µg/mL
MIC (E. coli A20732): 1.6 µg/mL
MIC (C. neoformans IAM 4514): 0.4 µg/mL
MIC (B. mycoides "0"): 0.2 µg/mL
MIC (P. vulgaris A9436): 0.8 µg/mL
MIC (S. aureus #193): 0.2 µg/mL
MIC (B. anthracis 115): 0.4 µg/mL
MIC (S. aureus Smith A9537): 0.1 µg/mL
MIC (A. fumigatus IAM 2530): 0.8 µg/mL
MIC (Verticillium sp.): 6.3 µg/mL
MIC (S. marcescens A20333): 0.8 µg/mL
MIC (E. cloacae A21006): 50 µg/mL
MIC (T. rubrum D-55): 3.1 µg/mL

Cc1c(N)nc([C@H](CC(N)=O)NC[C@@H](N)C(N)=O)nc1C(=O)N[C@H](C(=O)N[C@H](C)[C@@H](O)CC(=O)N[C@@H](C(=O)NC(O[C@@H]1O[C@@H](C)[C@@H](N)[C@@H](O)[C@H]1O)C(O)c1nc(-c2nc(C(=O)NCCCNCCCCN)cs2)cs1)[C@@H](C)O)C(O[C@@H]1O[C@@H](CO)[C@H](O)[C@@H](O)[C@@H]1O[C@H]1O[C@H](CO)[C@@H](O)[C@@H](OC(N)=O)[C@@H]1O)c1cnc[nH]1 (some centres unmarked) [Bu-2231 B Cu-free]
MIC (C. albicans Nystatin-R): 0.8 µg/mL (≈ 0.499 µM)
MIC (S. cerevisiae IAM 4009): 0.2 µg/mL (≈ 0.125 µM)
MIC (Sporotrichum sp.): 3.1 µg/mL (≈ 1.93 µM)
MIC (M. flavus D12): 0.4 µg/mL (≈ 0.249 µM)
MIC (C. lunata ATCC 13432): 0.2 µg/mL (≈ 0.125 µM)
MIC (P. aeruginosa A 9923): > 100 µg/mL
MIC [1]: 0.8 µg/mL (≈ 0.499 µM)
MIC (S. cerevisiae ATCC 9763): 0.2 µg/mL (≈ 0.125 µM)
MIC [2]: 0.1 µg/mL (≈ 0.0624 µM)
MIC (B. cereus ATCC 10702A): 0.2 µg/mL (≈ 0.125 µM)
MIC (K. pneumoniae A20680): 25 µg/mL (≈ 15.6 µM)
MIC (P morganii A9553): 1.6 µg/mL (≈ 0.998 µM)
MIC (Mucor sp.): 3.1 µg/mL (≈ 1.93 µM)
MIC (P. citrinum IAM 7008): 1.6 µg/mL (≈ 0.998 µM)
MIC (P. rettgeri A15167): 0.8 µg/mL (≈ 0.499 µM)
MIC (S. marcescens A20019): 0.8 µg/mL (≈ 0.499 µM)
MIC (P. aeruginosa H9, D113): > 100 µg/mL
MIC (S. aureus 209P): 0.4 µg/mL (≈ 0.249 µM)
MIC (C. tropicalis IAM 4157): 0.8 µg/mL (≈ 0.499 µM)
MIC (S. marcescens A20460): 0.8 µg/mL (≈ 0.499 µM)
MIC (K. pneumoniae A20328): 1.6 µg/mL (≈ 0.998 µM)
MIC (P. aeruginosa A9930): 0.8 µg/mL (≈ 0.499 µM)
MIC (A. niger var Tieghem): 0.2 µg/mL (≈ 0.125 µM)
MIC (Hormodendrum sp.): 0.2 µg/mL (≈ 0.125 µM)
MIC (C. neoformans (Cn-1)): 0.2 µg/mL (≈ 0.125 µM)
MIC (S. aureus A20239): 0.8 µg/mL (≈ 0.499 µM)
MIC (P. mirabilis A9554): 0.2 µg/mL (≈ 0.125 µM)
MIC (B. subtilis PCI-219): < 0.0063 µg/mL
MIC (M. canis D-51): 0.8 µg/mL (≈ 0.499 µM)
MIC [3]: 1.6 µg/mL (≈ 0.998 µM)
MIC (Mycobacterium 607, D47): 0.05 µg/mL (≈ 0.0312 µM)
MIC (K. pneumoniae A9678): 0.4 µg/mL (≈ 0.249 µM)
MIC (K. pneumoniae D11): 0.025 µg/mL (≈ 0.0156 µM)
MIC (P. stuartii A20734): 0.8 µg/mL (≈ 0.499 µM)
MIC (E. coli A20732): 0.2 µg/mL (≈ 0.125 µM)
MIC (C. neoformans IAM 4514): 0.2 µg/mL (≈ 0.125 µM)
MIC (B. mycoides "0"): 0.2 µg/mL (≈ 0.125 µM)
MIC (P. vulgaris A9436): 0.2 µg/mL (≈ 0.125 µM)
MIC (S. aureus #193): 0.4 µg/mL (≈ 0.249 µM)
MIC (B. anthracis 115): 0.1 µg/mL (≈ 0.0624 µM)
MIC (S. aureus Smith A9537): 0.05 µg/mL (≈ 0.0312 µM)
MIC (A. fumigatus IAM 2530): 0.4 µg/mL (≈ 0.249 µM)
MIC (Verticillium sp.): 1.6 µg/mL (≈ 0.998 µM)
MIC (S. marcescens A20333): 0.8 µg/mL (≈ 0.499 µM)
MIC (E. cloacae A21006): 6.3 µg/mL (≈ 3.93 µM)
MIC (T. rubrum D-55): 0.8 µg/mL (≈ 0.499 µM)
